Measured values as given in ChEMBL document CHEMBL5375955, “Discovery of New Fusobacterium nucleatum Inhibitors to Attenuate Migratory Capability of Colon Cancer Cells by the Drug Repositioning Strategy” (J Med Chem, 2023).
Converted amounts (≈) assume the structure as drawn. The source made the active and inactive calls. The rule behind the calls is not given here.

Assays:
MC-38 [1] = experiment: Potency index, ratio of nitisinone IC50 to test compound IC50 for antiproliferative activity against mouse MC-38 cells assessed as inhibition of cell growth incubated for 48 hrs by CCK-8 assay; format: functional
[2] = Acute toxicity in ICR mouse assessed as death rate at 2592 mg/kg, po measured after 7 days; format: organism-based; details: in vivo, time 7 day, read-out: Activity
Fusobacterium nucleatum [3] = experiment: Antibiofilm activity against Fusobacterium nucleatum ATCC 23726 assessed as inhibition of biofilm formation at 1 ug/ml incubated for 48 hrs by crystal violet staining based assay relative to control; format: functional
[4] = Acute toxicity in ICR mouse assessed as death rate at 2160 mg/kg, po measured after 7 days; format: organism-based; details: in vivo, time 7 day, read-out: Activity
[5] = Cmax in Sprague-Dawley rat at 1 mg/kg, iv measured upto 24 hrs by LC-MS/MS analysis; format: ADME, organism-based; design: dose 1 mg/kg, time < 24 hrs, route iv; details: in vivo
Fusobacterium nucleatum [6] = experiment: Antibiofilm activity against Fusobacterium nucleatum ATCC 23726 assessed as downregulation of tnaA gene expression measured after 48 hrs by RT-qPCR analysis; format: functional, organism-based
Fusobacterium nucleatum [7] = experiment: Inhibition of Fusobacterium nucleatum ATCC 23726 stimulated mouse MC-38 cell migration assessed as reduction in number of migrating cells at 2 to 4 ug/ml incubated for 48 hrs by crystal violet staining based transwell assay; format: functional; details: dose 2-4 µg/ml
HCT-116 = experiment: Antiproliferative activity against human HCT-116 cells assessed as inhibition of cell growth incubated for 48 hrs by CCK-8 assay; format: functional, cell-based; details: HCT-116, 48 h
[8] = Tmax in Sprague-Dawley rat at 20 mg/kg, po measured upto 24 hrs by LC-MS/MS analysis; format: ADME, organism-based; details: in vivo
[9] = Oral bioavailability in Sprague-Dawley rat at 20 mg/kg measured upto 24 hrs by LC-MS/MS analysis; format: ADME, organism-based; details: in vivo
[10] = Cytotoxicity against HUVEC cells assessed as inhibition of cell growth incubated for 48 hrs by CCK-8 assay; format: toxicity, cell-based; details: human
MC-38 [11] = experiment: Antiproliferative activity against mouse MC-38 cells assessed as inhibition of cell growth incubated for 48 hrs by CCK-8 assay; format: functional, cell-based; details: MC-38, 48 h
Escherichia coli = experiment: Antibacterial activity against Escherichia coli […] assessed as bacterial growth inhibition incubated for 48 hrs by broth dilution susceptibility test; format: functional
[12] = Acute toxicity in po dosed ICR mouse assessed as kidney damage at 1500 mg/kg, po measured after 7 days by H and E staining based analysis; format: organism-based; details: in vivo, 168 h, time 7 day
[13] = Half life in Sprague-Dawley rat at 1 mg/kg, iv measured upto 24 hrs by LC-MS/MS analysis; format: ADME, organism-based; details: in vivo
[14] = Drug metabolism assessed as NTR(unknown origin)-mediated metabolism at 10 mM incubated for 2 hrs in presence of NADH by LC-MS analysis; format: ADME; details: bacteria, 10000 µM
Enterococcus faecalis = experiment: Antibacterial activity against Enterococcus faecalis ATCC 29212 assessed as bacterial growth inhibition incubated for 48 hrs by broth dilution susceptibility test; format: functional
[15] = Acute toxicity in po dosed ICR mouse assessed as spleen damage at 1500 mg/kg, po measured after 7 days by H and E staining based analysis; format: organism-based; details: in vivo, 168 h, time 7 day
Fusobacterium nucleatum [16] = experiment: Antibiofilm activity against Fusobacterium nucleatum ATCC 23726 assessed as inhibition of biofilm formation incubated for 48 hrs by crystal violet staining based assay; format: functional, organism-based; details: dose 0.5-16 µg/ml
[17] = Acute toxicity in po dosed ICR mouse assessed as liver damage at 1500 mg/kg, po measured after 7 days by H and E staining based analysis; format: organism-based; details: in vivo, 168 h, time 7 day
[18] = Acute toxicity in po dosed ICR mouse assessed as animal death measured after 7 days; format: organism-based; details: in vivo, time 7 day
Akkermansia muciniphila = experiment: Antibacterial activity against Akkermansia muciniphila ATCC BAA-835 assessed as bacterial growth inhibition incubated for 48 hrs by broth dilution susceptibility test; format: functional
Shigella flexneri = experiment: Antibacterial activity against Shigella flexneri ATCC 12022 assessed as bacterial growth inhibition incubated for 48 hrs by broth dilution susceptibility test; format: functional
[19] = test system: Peptostreptococcus anaerobius; experiment: Antibacterial activity against Peptostreptococcus anaerobius ATCC 27337 assessed as bacterial growth inhibition incubated for 48 hrs by broth dilution susceptibility test; format: functional
[20] = Metabolic stability in mouse liver microsomes assessed as half life at 1 uM incubated for 45 mins in presence of NADPH by LC-MS/MS analysis; format: ADME, Microsome
[21] = Cytotoxicity against human L02 cells assessed as inhibition of cell growth incubated for 48 hrs by CCK-8 assay; format: toxicity, cell-based
L02 = experiment: Downregulation of HPPD gene expression in human L02 cells at 10 to 50 uM incubated for 48 hrs by RT-qPCR analysis; format: functional, cell-based; details: dose 10-50 µM
[22] = Clearance in Sprague-Dawley rat at 1 mg/kg, iv measured upto 24 hrs by LC-MS/MS analysis; format: ADME, organism-based; details: in vivo
Fusobacterium nucleatum [23] = experiment: Antibacterial activity against Fusobacterium nucleatum ATCC 23726 assessed as bacterial growth inhibition incubated for 48 hrs by broth dilution susceptibility test; format: functional
[24] = Acute toxicity in po dosed ICR mouse assessed as heart damage at 1500 mg/kg, po measured after 7 days by H and E staining based analysis; format: organism-based; details: in vivo, 168 h, time 7 day
[25] = test system: Salmonella enterica subsp. enterica serovar Paratyphi B; experiment: Antibacterial activity against Salmonella paratyphi B ATCC CMCC50094 assessed as bacterial growth inhibition incubated for 48 hrs by broth dilution susceptibility test; format: functional
Staphylococcus aureus = experiment: Antibacterial activity against Staphylococcus aureus ATCC 6538 assessed as bacterial growth inhibition incubated for 48 hrs by broth dilution susceptibility test; format: functional
Fusobacterium nucleatum [26] = experiment: Antibacterial activity against Fusobacterium nucleatum ATCC 23726 assessed as bacterial growth inhibition at 4 ug/ml incubated for 72 hrs by turbidimeter analysis; format: functional, organism-based; details: dose 4.0 µg/ml
Fusobacterium nucleatum [27] = experiment: Antibacterial activity against Fusobacterium nucleatum ATCC 23726 assessed as downregulation of NTR gene expression incubated for 48 hrs by RT-qPCR analysis; format: functional, organism-based
[28] = test system: Lactobacillus acidophilus; experiment: Antibacterial activity against Lactobacillus acidophilus ATCC CGMCC 1.577 assessed as bacterial growth inhibition incubated for 48 hrs by broth dilution susceptibility test; format: functional
Fusobacterium nucleatum [29] = experiment: Antibacterial activity against Fusobacterium nucleatum ATCC 23726 assessed as bacterial growth inhibition incubated for 72 hrs by turbidimeter analysis; format: functional, organism-based
[30] = Acute toxicity in po dosed ICR mouse assessed as lung damage at 1500 mg/kg, po measured after 7 days by H and E staining based analysis; format: organism-based; details: in vivo, 168 h, time 7 day

O=C(NCc1ccc(Br)nc1)c1ccc([N+](=O)[O-])o1
Ratio IC50 (MC-38 [1]): 8 | mortality at 168 h [2]: 70% | inhibition at 1 µg/mL (Fusobacterium nucleatum [3]): > 50% | mortality at 168 h [4]: 20% | Cmax [5]: 85 ng/mL | Activity (Fusobacterium nucleatum [6]): Dose-Dependent Effect | inhibition (Fusobacterium nucleatum [7]): Active | IC50 (HCT-116): 32 µM | Tmax [8]: 84 min | bioavailability [9]: 4.2% | IC50 at 48 h [10]: 16 µM | IC50 (MC-38 [11]): 11 µM | MIC50 (Escherichia coli): > 64 µg/mL | Activity [12]: Non-Toxic | half-life [13]: ~4.08 min | Drug metabolism [14]: Metabolite_Detected | MIC50 (Enterococcus faecalis): > 64 µg/mL | Activity [15]: Non-Toxic | inhibition (Fusobacterium nucleatum [16]): Dose-Dependent Effect | Activity [17]: Non-Toxic | LD50 at 168 h [18]: 2400 mg/kg | MIC50 (Akkermansia muciniphila): > 64 µg/mL | MIC50 (Shigella flexneri): 64 µg/mL (≈ 196 µM) | MIC50 [19]: 64 µg/mL (≈ 196 µM) | half-life at 1 µM [20]: 25.1 min | IC50 at 48 h [21]: 16 µM | Activity (L02): Active | clearance [22]: 601 mL/min/kg | MIC50 (Fusobacterium nucleatum [23]): 1 µg/mL (≈ 3.07 µM) | MIC90 (Fusobacterium nucleatum [23]): 4 µg/mL (≈ 12.3 µM) | Activity [24]: Non-Toxic | MIC50 [25]: > 64 µg/mL | MIC50 (Staphylococcus aureus): > 64 µg/mL | Activity (Fusobacterium nucleatum [26]): Active | Activity (Fusobacterium nucleatum [27]): Dose-Dependent Effect | MIC50 [28]: 64 µg/mL (≈ 196 µM) | Activity (Fusobacterium nucleatum [29]): Dose-Dependent Effect | Activity [30]: Non-Toxic
